In this assay the target is T1, ERR1 (also known as ERR-α or ERR-1) (Homo sapiens, UniProt P11474).
T1 sequence (P11474 193-421 limits assumed): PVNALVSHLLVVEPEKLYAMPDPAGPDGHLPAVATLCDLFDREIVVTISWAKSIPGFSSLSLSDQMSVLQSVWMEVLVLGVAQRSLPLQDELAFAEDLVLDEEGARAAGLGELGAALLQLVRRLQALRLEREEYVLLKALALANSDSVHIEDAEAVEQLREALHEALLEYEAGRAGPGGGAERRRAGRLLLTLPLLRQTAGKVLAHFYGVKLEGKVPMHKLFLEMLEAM
As to the kind of experiment: TR-FRET assay (disruption of co-activator peptide binding). It counts as biochemical. As to conditions: 6His-tagged ERR1 LBD, GST-hSRC2 co-activator polypeptide; average of 3 independent experiments. The essentials: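 Compound-induced loss of co-activator recruitment, read by time-resolved FRET (excitation 340 nm; 615 and 665 nm emission) after 4-18 h at 25 °C. Reagents: 6 nM ERR1LBD, 6 nM GST-SRC-2, 30 nM Eu cryptate, 7.5 nM XL665, pH 8 Tris buffer. Values: hyperbolic fits averaged over 3 independent runs.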
On the technique in general: In TR-FRET formats the signal depends on donor and acceptor labels being close together.

As usually defined, the EC50 is the midpoint of the concentration-response curve.

`C[C@@H]1CN(C2CN(C3=NC(=O)/C(=C/c4ccc5c(cnn5Cc5ccc(C(F)(F)F)cc5C(F)(F)F)c4)S3)C2)C[C@H](C)O1` [Example 202, 5-({1-[2,4-Bis(trifluoromethyl)benzyl]-1H-indazol-5-yl}methylidene)-2-[3-(2,6-cis-dimethylmorpholin-4-yl)azetidin-1-yl]-1,3-thiazol-4(5H)-one]: it took 0.0597 µM to reach a half-maximal effect (EC50).

In turn, `C[C@@H]1CN(C2CN(C3=NC(=O)/C(=C/c4ccc5c(cnn5Cc5ccc(Cl)cc5C(F)(F)F)c4)S3)C2)C[C@H](C)O1` [Example 203, 5-({1-[4-Chloro-2-(trifluoromethyl)benzyl]-1H-indazol-5-yl}methylidene)-2-[3-(2,6-cis-dimethylmorpholin-4-yl)azetidin-1-yl]-1,3-thiazol-4(5H)-one] showed an EC50 of 0.0388 µM.

In the case of `O=C1N=C(N2CC(N3CCOCC3)C2)S/C1=C\c1ccc2c(cnn2Cc2ccc(C(F)(F)F)cc2C(F)(F)F)c1` [Example 204, 5-({1-[2,4-Bis(trifluoromethyl)benzyl]-1H-indazol-5-yl}methylidene)-2-(3-morpholin-4-ylazetidin-1-yl)-1,3-thiazol-4(5H)-one], the EC50 amounted to 0.042 µM.

`O=C1N=C(N2CC(N3CCOCC3)C2)S/C1=C\c1ccc2c(cnn2Cc2ccc(Cl)cc2C(F)(F)F)c1` [Example 205, 5-({1-[4-Chloro-2-(trifluoromethyl)benzyl]-1H-indazol-5-yl}methylidene)-2-(3-morpholin-4-ylazetidin-1-yl)-1,3-thiazol-4(5H)-one] returned an EC50 of 0.03 µM.

As to `O=C1N=C(N2CCN[C@H](CO)C2)S/C1=C\c1ccc2c(cnn2Cc2ccc(Cl)cc2C(F)(F)F)c1` [Example 206, 5-({1-[4-Chloro-2-(trifluoromethyl)benzyl]-1H-indazol-5-yl}methylidene)-2-[3-(S)-(hydroxymethyl)piperazin-1-yl]-1,3-thiazol-4(5H)-one], the EC50 was determined as 0.028 µM.

The compound `CC(C)(C)N1CCN(C2=NC(=O)/C(=C/c3ccc4c(cnn4Cc4ccc(C(F)(F)F)cc4C(F)(F)F)c3)S2)C[C@@H]1CO` [Example 207, 5-({1-[2,4-Bis(trifluoromethyl)benzyl]-1H-indazol-5-yl}methylidene)-2-[4-tert-butyl-3-(R)-(hydroxymethyl)piperazin-1-yl]-1,3-thiazol-4(5H)-one] yielded an EC50 of 0.038 µM.

As for `COC[C@H]1CN(C2=NC(=O)/C(=C/c3ccc4c(cnn4Cc4ccc(Cl)cc4C(F)(F)F)c3)S2)CCN1` [Example 208, 5-({1-[4-Chloro-2-(trifluoromethyl)benzyl]-1H-indazol-5-yl}methylidene)-2-[3-(R)-(methoxymethyl)piperazin-1-yl]-1,3-thiazol-4(5H)-one], the EC50 came to 0.006 µM.

On to `COC[C@@H]1CN(C2=NC(=O)/C(=C/c3ccc4c(cnn4Cc4ccc(Cl)cc4C(F)(F)F)c3)S2)CCN1` [Example 209, 5-({1-[4-Chloro-2-(trifluoromethyl)benzyl]-1H-indazol-5-yl}methylidene)-2-[3-(S)-(methoxymethyl)piperazin-1-yl]-1,3-thiazol-4(5H)-one], for which the EC50 was 0.006 µM.

As for `COC[C@H]1CN(C2=NC(=O)/C(=C/c3ccc4c(cnn4Cc4ccc(C(F)(F)F)cc4C(F)(F)F)c3)S2)CCN1` [Example 210, 5-({1-[2,4-Bis(trifluoromethyl)benzyl]-1H-indazol-5-yl}methylidene)-2-[3-(R)-(methoxymethyl)piperazin-1-yl]-1,3-thiazol-4(5H)-one], the concentration giving a half-maximal response (EC50) came to 0.0248 µM.

Compound `COC[C@@H]1CN(C2=NC(=O)/C(=C/c3ccc4c(cnn4Cc4ccc(C(F)(F)F)cc4C(F)(F)F)c3)S2)CCN1` [Example 211, 5-({1-[2,4-Bis(trifluoromethyl)benzyl]-1H-indazol-5-yl}methylidene)-2-[3-(S)-(methoxymethyl)piperazin-1-yl]-1,3-thiazol-4(5H)-one] had an EC50 of 0.031 µM.

Regarding `O=C1N=C(N2CCO[C@H](CO)C2)S/C1=C\c1ccc2c(cnn2Cc2ccc(Cl)cc2C(F)(F)F)c1` [Example 212, 5-({1-[4-Chloro-2-(trifluoromethyl)benzyl]-1H-indazol-5-yl}methylidene)-2-[2-(S)-(hydroxymethyl)morpholin-4-yl]-1,3-thiazol-4(5H)-one], the EC50 was found to be 0.02 µM.

Turning to `O=C1N[C@@H]2C[C@H](CO1)N(C1=NC(=O)/C(=C/c3ccc4c(cnn4Cc4ccc(C(F)(F)F)cc4C(F)(F)F)c3)S1)C2` [Example 214, (1R,6R)-7-[5-({1-[2,4-Bis(trifluoromethyl)benzyl]-1H-indazol-5-yl}methylidene)-4-oxo-4,5-dihydro-1,3-thiazol-2-yl]-4-oxa-2,7-diazabicyclo[4.2.1]nonan-3-one], the EC50 was 0.008 µM.

As for `O=C1N=C(N2CCN(C(=O)C3CC3)[C@@H](CO)C2)S/C1=C\c1ccc2c(cnn2Cc2ccc(C(F)(F)F)cc2C(F)(F)F)c1` [Example 215, 5-({1-[2,4-Bis(trifluoromethyl)benzyl]-1H-indazol-5-yl}methylidene)-2-[4-(cyclopropylcarbonyl)-3-(R)-(hydroxymethyl)piperazin-1-yl]-1,3-thiazol-4(5H)-one], the response was half-maximal at 0.048 µM (EC50).

In turn, `COC(=O)N1CCN(C2=NC(=O)/C(=C/c3ccc4c(cnn4Cc4ccc(C(F)(F)F)cc4C(F)(F)F)c3)S2)C[C@@H]1CO` [Example 216, Methyl 4-[5-({1-[2,4-bis(trifluoromethyl)benzyl]-1H-indazol-5-yl}methylidene)-4-oxo-4,5-dihydro-1,3-thiazol-2-yl]-2-(R)-(hydroxymethyl)piperazine-1-carboxylate] registered an EC50 of 0.015 µM.

On to `N#Cc1nn(Cc2ccc(C(F)(F)F)cc2C(F)(F)F)c2ccc(/C=C3\SC(N4CCN[C@@H](CO)C4)=NC3=O)cc12` [Example 217, 1-[2,4-Bis(trifluoromethyl)benzyl]-5-({2-[3-(R)-(hydroxymethyl)piperazin-1-yl]-4-oxo-1,3-thiazol-5(4H)-ylidene}methyl)-1H-indazole-3-carbonitrile], for which the midpoint of the response, the EC50, lay at 0.027 µM.

Regarding `N#Cc1nn(Cc2ccc(C(F)(F)F)cc2C(F)(F)F)c2ccc(/C=C3\SC(N4CCN[C@H](CO)C4)=NC3=O)cc12` [Example 218, 1-[2,4-Bis(trifluoromethyl)benzyl]-5-({2-[3-(S)-(hydroxymethyl)piperazin-1-yl]-4-oxo-1,3-thiazol-5(4H)-ylidene}methyl)-1H-indazole-3-carbonitrile], the response was half-maximal at 0.036 µM (EC50).

For the compound `CN1CCN(C2=NC(=O)/C(=C/c3ccc4c(cnn4Cc4ccc(C(F)(F)F)cc4C(F)(F)F)c3)S2)CC1(C)C` [Example 219, 5-({1-[2,4-Bis(trifluoromethyl)benzyl]-1H-indazol-5-yl}methylidene)-2-(3,3,4-trimethylpiperazin-1-yl)-1,3-thiazol-4(5H)-one], the EC50 was found to be 0.023 µM.

`CC(C)(C)NC(=O)[C@@H]1CN(C2=NC(=O)/C(=C/c3ccc4c(cnn4Cc4ccc(C(F)(F)F)cc4C(F)(F)F)c3)S2)CCN1` [Example 220, 4-[5-({1-[2,4-Bis(trifluoromethyl)benzyl]-1H-indazol-5-yl}methylidene)-4-oxo-4,5-dihydro-1,3-thiazol-2-yl]-N-tert-butylpiperazine-2-(S)-carboxamide] showed an EC50 of 0.0214 µM.

The compound `CN1CCN(C2=NC(=O)/C(=C/c3ccc4c(cnn4Cc4ccc(Cl)cc4C(F)(F)F)c3)S2)CC1(C)C` [Example 221, 5-({1-[4-Chloro-2-(trifluoromethyl)benzyl]-1H-indazol-5-yl}methylidene)-2-(3,3,4-trimethylpiperazin-1-yl)-1,3-thiazol-4(5H)-one] yielded an EC50 of 0.007 µM.

For the compound `CN1CCN(C2=NC(=O)/C(=C/c3ccc4c(c3)c(C#N)nn4Cc3ccc(Cl)cc3C(F)(F)F)S2)CC1(C)C` [Example 222, 1-[4-Chloro-2-(trifluoromethyl)benzyl]-5-{[4-oxo-2-(3,3,4-trimethylpiperazin-1-yl)-1,3-thiazol-5(4H)-ylidene]methyl}-1H-indazole-3-carbonitrile], it took 0.02 µM to reach a half-maximal effect (EC50).

In the case of `N#Cc1nn(Cc2ccc(Cl)cc2C(F)(F)F)c2ccc(/C=C3\SC(N4CCN(CC5CC5)CC4)=NC3=O)cc12` [Example 224, 1-[4-Chloro-2-(trifluoromethyl)benzyl]-5-({2-[4-(cyclopropylmethyl)piperazin-1-yl]-4-oxo-1,3-thiazol-5(4H)-ylidene}methyl)-1H-indazole-3-carbonitrile], the EC50 came out at 0.07 µM.

Regarding `O=C1N=C(N2C[C@H](O)[C@@H](N3CCOCC3)C2)S/C1=C\c1ccc2c(cnn2Cc2ccc(C(F)(F)F)cc2C(F)(F)F)c1` [Example 225, (5Z)-5-({1-[2,4-Bis(trifluoromethyl)benzyl]-1H-indazol-5-yl}methylidene)-2-[(3S,4S)-3-hydroxy-4-morpholin-4-ylpyrrolidin-1-yl]-1,3-thiazol-4(5H)-one], the EC50 is 0.018 µM.

With `CNC(=O)[C@H]1CN(C2=NC(=O)/C(=C/c3ccc4c(cnn4Cc4ccc(Cl)cc4C(F)(F)F)c3)S2)CCN1` [Example 226, (2R)-4-[5-({1-[4-Chloro-2-(trifluoromethyl)benzyl]-1H-indazol-5-yl}methylidene)-4-oxo-4,5-dihydro-1,3-thiazol-2-yl]-N-methylpiperazine-2-carboxamide], the response was half-maximal at 0.008 µM (EC50).

In turn, `CNC(=O)[C@H]1CN(C2=NC(=O)/C(=C/c3ccc4c(cnn4Cc4ccc(C(F)(F)F)cc4C(F)(F)F)c3)S2)CCN1` [Example 227, (2R)-4-[5-({1-[2,4-Bis(trifluoromethyl)benzyl]-1H-indazol-5-yl}methylidene)-4-oxo-4,5-dihydro-1,3-thiazol-2-yl]-N-methylpiperazine-2-carboxamide] registered an EC50 of 0.015 µM.
